Data: paper PMC11157767 (Molecular Cancer, 2024)
“And” between values parts separate entries of the source, which are not always exact repeats. Equal entries are not always repeated. Where two headings read alike, the source gives them in different places.

Assays:
[1] = test system: murine TFG-MET tumor cells; conditions: 7 days; RT 0Gy - 8Gy
Experimental: For both compounds 1 µM was used as positive control.
Compound concentrations comprised 10µM and 9 serial 1:3 dilutions in 4 replicates each and radiation doses ranged from 0Gy – 8Gy. […] Tested compound concentrations comprised 10 µM and 9 serial 1:3 dilutions in 4 replicates each. ZIP synergy scores were calculated based on cell numbers according to the CellTiter-Glo Assay by using the synergyfinder tool.

[2] = cited from earlier work
[3] = test system: murine TFG-MET tumor cells; experiment: cells; conditions: Mus musculus
Description: To calculate unbound EC50 and EC90 values, total values were multiplied with unbound drug fractions in culture media (Table 1).

[4] = In vitro protein binding assay, culture media; type: in vitro ADME; conditions: read-out: unbound drug fraction, Culture Media, AVG
RAD51 = experiment: Western blot of RAD51 in TRIM24-MET or TFG-MET cells, 24 hours; type: cell-based, human and mouse
Experimental: Error bars display standard error of mean, statistical significance was determined using t-test analysis. (****;p<0.0001, ***;p<0.001, **;p<0.01, *;p<0.05). […] Each dot represents an individual replicate. Error bars display standard error of the mean. Statistical significance was determined using a One-Way ANOVA followed by Tukey’s multiple comparisons test (*p<0.05, **p<0.01, ***p<0.001, ****p<0.0001). Lysate from lane 10 was excluded due to the different timepoint after RT

pMET, pErk, pAkt = experiment: Phosphoprotein IHC/western blot in TFG-MET allograft tumors (PD and Survival cohort); type: in vivo, mouse; conditions: for levels of phosphorylated MET, Erk and Akt in initial neoplasms: PD cohort, after second treatment, vs vehicle
Experimental: Error bars display standard error of the mean. Statistical significance was determined using a One-Way ANOVA followed by Tukey’s multiple comparisons test (*p<0.05, **p<0.01, ***p<0.001, ****p<0.0001)

TFG-MET allograft tumors = experiment: TFG-MET allograft preclinical trial in CD1 mice, Survival cohort (survival, BLI, body weight); type: in vivo, mouse; conditions: for BLI signal, individual mice: Murine allografts
Experimental: All treatments started 1 week after transplantation. Radio therapy was administered for 6 days, delivering 12 Gy total. Compound treatment was continued for 84 days. […] N = 8 (vehicle arms) or n = 10 (compound-treated arms), respectively. […] First row is depicted in another intensity scale to visualize tumors in all mice. The depicted scale bar indicates the range from 5x10^5-1x10^7 photons/sec/cm^2/sr.
Survival, body weight and tumor burden data from TFG-MET allograft-bearing mice. a,Schematic illustrating the preliminary in vivo study to determine the efficacy of RT alone. b, Survival curve of mice depicted in a. […] Each line represents one mouse. The ends of lines indicate the onset of neurological symptoms and thereby the endpoints.
Bioluminescence signals of in vivo trials.

TRIM24-MET-r cells = experiment: 3-day dose-response assay, TRIM24-MET-r cells; type: cell-based; conditions: Homo sapiens
[5] = Plasma pharmacokinetics in CD-1 nude mice (NCA); type: in vivo, mouse; conditions: for AUC / AUC(0-inf) / AUC(0-t) / CL/F / Cmax / Tmax / half-life / k el / Vd/F: CD-1 nude, mouse; for AUC: plasma, 25 mg/kg, read-out: total plasma AUC; for AUC(0-inf) / AUC(0-t) / CL/F / Cmax / Tmax / half-life / k el / Vd/F / Clast / Tlast: Plasma, NCA estimate; for Vd/F: read-out: Vz/F
Experimental: Fig. 2 TFG-MET-driven mouse model and pharmacokinetic profiles of MET inhibitors. a Schematic illustrating the method and utilized vectors to induce CRISPR/Cas9-mediated Trp53 deletion and TFG-MET overexpression following in utero electroporations. b H&E staining and Immunohistochemical analysis of a tumor generated by in utero electroporation, visualized by the HA-tag of TFG-MET. […] Three mice were analyzed per compound and time point. Error bars indicate the standard deviation. Dashed rectangles indicate time windows of radiation in the following preclinical allograft study
See Methods – Pharmacokinetics section for a description of abbreviations.

TRIM24-MET-i cells = experiment: 3-day dose-response assay, TRIM24-MET-i cells; type: cell-based; conditions: Homo sapiens

CNC(=O)c1ccc(-c2cnc3ncc(Cc4ccc5ncccc5c4)n3n2)cc1F [Capmatinib]
combination effect with RT (ZIP synergy model) [1]: additive effect with a trend towards synergy | mean steady total plasma AUC ([2]; humans, 400 mg BID orally): 17,300 hr-ng/mL | EC90 ([3]; read-out: EC90 (nM) Total): 29.9 nM | EC90 ([3]; read-out: EC90 (nM) Unbound*): 21.1 nM | fraction unbound [4]: 0.705 | RAD51 protein level (RAD51): downregulation | levels of phosphorylated MET, Erk and Akt in initial neoplasms (pMET, pErk, pAkt): greatly reduced levels | animals with pMET and pErk reduced to background levels (pMET, pErk, pAkt; Survival cohort, sacrificed under treatment): 4/6 | BLI signal, individual mice (TFG-MET allograft tumors; day 7, drug + RT): 2.90E+08 and 3.10E+06 and 2.30E+07 and 4.30E+06 and 9.70E+05 and 1.20E+06 and 8.80E+06 and 3.20E+06 and 7.40E+06 and 6.80E+07 | BLI signal, individual mice (TFG-MET allograft tumors; day 7, drug alone): 2.90E+06 and 5.20E+06 and 4.80E+06 and 3.30E+07 | BLI signal, individual mice (TFG-MET allograft tumors; day 10, drug + RT): 1.80E+08 and 2.30E+06 and 4.90E+07 and 1.20E+07 and 6.70E+06 and 5.70E+05 and 1.10E+07 and 1.60E+06 and 6.20E+06 and 3.60E+07 | BLI signal, individual mice (TFG-MET allograft tumors; day 10, drug alone): 2.30E+06 and 7.80E+06 and 1.50E+07 and 6.40E+07 | BLI signal, individual mice (TFG-MET allograft tumors; day 14, drug + RT): 2.10E+08 and 3.20E+06 and 6.50E+07 and 1.30E+07 and 3.10E+05 and 1.60E+05 and 7.60E+06 and 6.60E+05 and 1.20E+08 | BLI signal, individual mice (TFG-MET allograft tumors; day 14, drug alone): 8.30E+06 and 6.10E+07 and 2.00E+07 and 6.20E+07 | BLI signal, individual mice (TFG-MET allograft tumors; day 21, drug + RT): 1.10E+05 and 1.60E+05 and 1.30E+05 and 1.50E+07 and 5.10E+06 and 3.60E+06 and 6.20E+06 and 1.40E+05 and 9.20E+06 | BLI signal, individual mice (TFG-MET allograft tumors; day 21, drug alone): 8.80E+07 and 2.30E+08 and 7.60E+07 and 2.10E+08 | BLI signal, individual mice (TFG-MET allograft tumors; day 28, drug + RT): 1.10E+05 and 1.60E+05 and 2.00E+05 and 2.20E+08 and 4.30E+07 and 3.30E+07 and 5.10E+07 and 1.50E+05 and 5.80E+06 | BLI signal, individual mice (TFG-MET allograft tumors; day 28, drug alone): 5.10E+08 and 5.20E+08 and 2.60E+08 and 1.90E+08 | BLI signal, individual mice (TFG-MET allograft tumors; day 35, drug + RT): 1.10E+05 and 1.50E+05 and 1.40E+05 and 9.90E+05 and 1.00E+07 | BLI signal, individual mice (TFG-MET allograft tumors; day 42, drug + RT): 1.20E+05 and 1.30E+05 and 1.40E+05 and 2.50E+06 and 4.40E+07 | BLI signal, individual mice (TFG-MET allograft tumors; day 49, drug + RT): 1.30E+05 and 1.20E+05 and 7.40E+06 | BLI signal, individual mice (TFG-MET allograft tumors; day 56, drug + RT): 1.00E+05 and 1.40E+05 and 1.50E+05 and 6.60E+07 and 1.20E+08 | BLI signal, individual mice (TFG-MET allograft tumors; day 63, drug + RT): 1.10E+05 and 2.00E+05 and 1.40E+05 and 1.90E+08 | BLI signal, individual mice (TFG-MET allograft tumors; day 70, drug + RT): 1.10E+05 and 1.20E+05 | BLI signal, individual mice (TFG-MET allograft tumors; day 77, drug + RT): 1.02E+05 and 1.30E+05 and 1.10E+05 | BLI signal, individual mice (TFG-MET allograft tumors; day 84, drug + RT): 1.06E+05 and 9.93E+04 and 1.20E+05 | BLI signal, individual mice (TFG-MET allograft tumors; day 91, drug + RT): 9.34E+04 and 1.44E+05 and 1.14E+05 | animals with reduction of tumor burden by week 3 (BLI) (TFG-MET allograft tumors; capmatinib + RT (12 Gy)): 8/10 | increase of survival rate (TFG-MET allograft tumors; capmatinib + RT (12 Gy), Survival cohort): 3 fold | mice reaching 140 days after transplantation without residual tumor (TFG-MET allograft tumors; capmatinib + RT arm, n = 10): Three | EC90 (TRIM24-MET-r cells; 72 h, TRIM24-MET-r, 3-day dose response, read-out: EC90 Total): 199 nM | EC90 (TRIM24-MET-r cells; TRIM24-MET-r, total value multiplied with unbound fraction in culture media, read-out: EC90 Unbound): 141 nM | plasma concentration at 16 hours post-dose ([5]; CD1 nude mice): below the detection limit | AUC [5]: 16400 ng·h/mL | AUC(0-inf) [5]: 16400 ng·h/mL | AUC(0-t) [5]: 14900 ng·h/mL | CL/F [5]: 25.3 mL/min/kg | Cmax [5]: 6200 ng/mL | Tmax [5]: 0.5 h | half-life [5]: 2.27 h | k el [5]: 8.47e-05 s⁻¹ | Vd/F [5]: 4.99 L/kg | Clast [5]: 540 ng/mL | Tlast [5]: 8 h | EC90 (TRIM24-MET-i cells; 72 h, TRIM24-MET-i, 3-day dose response, read-out: EC90 Total): 5.93 nM | EC90 (TRIM24-MET-i cells; TRIM24-MET-i, total value multiplied with unbound fraction in culture media, read-out: EC90 Unbound): 4.18 nM

C[C@@H](Oc1cc(-c2cnn(C3CCNCC3)c2)cnc1N)c1c(Cl)ccc(F)c1Cl [Crizotinib]
combination effect with RT (ZIP synergy model) [1]: additive effect with a trend towards synergy | mean steady total plasma AUC ([2]; pediatric solid tumors, maximum tolerated dose 280 mg/m^2 BID): 6,990 hr-ng/mL | EC50 ([3]; read-out: EC50 (nM) Total): 124 nM | EC50 ([3]; read-out: EC50 (nM) Unbound*): 76.2 nM | EC90 ([3]; read-out: EC90 (nM) Total): 612 nM | EC90 ([3]; read-out: EC90 (nM) Unbound*): 378 nM | IC50 ([3]; read-out: in vitro IC50): 124 nM | fraction unbound [4]: 0.617 | RAD51 protein level (RAD51): downregulation | levels of phosphorylated MET, Erk and Akt in initial neoplasms (pMET, pErk, pAkt): less complete reduction | BLI signal, individual mice (TFG-MET allograft tumors; day 7, drug + RT): 3.20E+07 and 3.90E+07 and 3.50E+08 and 1.10E+08 and 1.40E+07 and 8.30E+05 and 5.70E+06 and 1.70E+07 and 6.90E+05 and 4.00E+06 | BLI signal, individual mice (TFG-MET allograft tumors; day 7, drug alone): 8.40E+06 and 1.40E+07 and 3.90E+08 and 2.00E+06 and 1.50E+07 and 3.90E+06 and 6.00E+06 and 4.10E+06 and 1.20E+06 and 8.20E+06 | BLI signal, individual mice (TFG-MET allograft tumors; day 10, drug + RT): 3.00E+07 and 4.60E+07 and 1.60E+08 and 1.80E+08 and 5.10E+07 and 1.20E+06 and 1.50E+07 and 6.00E+05 and 7.00E+06 | BLI signal, individual mice (TFG-MET allograft tumors; day 10, drug alone): 2.30E+07 and 6.50E+07 and 3.70E+08 and 3.10E+06 and 5.60E+07 and 6.20E+06 and 3.30E+07 and 1.30E+07 and 3.50E+06 and 2.70E+06 | BLI signal, individual mice (TFG-MET allograft tumors; day 14, drug + RT): 1.90E+06 and 9.10E+07 and 9.70E+07 and 7.90E+07 and 7.60E+05 and 1.70E+08 and 5.90E+08 and 6.70E+05 and 3.10E+07 | BLI signal, individual mice (TFG-MET allograft tumors; day 14, drug alone): 5.20E+07 and 1.80E+09 and 3.60E+07 and 3.20E+08 and 6.50E+07 and 1.60E+08 and 1.70E+07 and 1.10E+07 and 2.00E+07 | BLI signal, individual mice (TFG-MET allograft tumors; day 21, drug + RT): 1.00E+05 and 5.60E+06 and 1.60E+07 | BLI signal, individual mice (TFG-MET allograft tumors; day 21, drug alone): 3.40E+07 and 2.10E+08 and 2.60E+08 and 2.60E+07 and 1.40E+08 and 8.10E+07 | BLI signal, individual mice (TFG-MET allograft tumors; day 28, drug + RT): 1.20E+08 and 2.10E+07 | BLI signal, individual mice (TFG-MET allograft tumors; day 28, drug alone): 5.90E+07 and 2.20E+08 and 4.40E+08 and 3.00E+08 | BLI signal, individual mice (TFG-MET allograft tumors; day 35, drug + RT): 1.30E+05 and 1.70E+07 | BLI signal, individual mice (TFG-MET allograft tumors; day 35, drug alone): 1.00E+07 and 8.70E+08 and 6.50E+08 | BLI signal, individual mice (TFG-MET allograft tumors; day 42, drug + RT): 1.30E+05 | BLI signal, individual mice (TFG-MET allograft tumors; day 42, drug alone): 1.00E+07 and 1.20E+09 | BLI signal, individual mice (TFG-MET allograft tumors; day 49, drug alone): 1.90E+06 | BLI signal, individual mice (TFG-MET allograft tumors; day 56, drug + RT): 1.30E+05 | BLI signal, individual mice (TFG-MET allograft tumors; day 56, drug alone): 2.20E+06 | BLI signal, individual mice (TFG-MET allograft tumors; day 63, drug alone): 1.90E+07 | BLI signal, individual mice (TFG-MET allograft tumors; day 70, drug + RT): 1.00E+05 | BLI signal, individual mice (TFG-MET allograft tumors; day 70, drug alone): 2.30E+07 | BLI signal, individual mice (TFG-MET allograft tumors; day 84, drug + RT): 1.26E+05 | BLI signal, individual mice (TFG-MET allograft tumors; day 91, drug alone): 1.06E+05 | EC50 (TRIM24-MET-r cells; 72 h, read-out: EC50 Total): 151 nM | EC90 (TRIM24-MET-r cells; 72 h, read-out: EC90 Total): 5670 nM | EC50 (TRIM24-MET-r cells; read-out: EC50 Unbound): 93 nM | EC90 (TRIM24-MET-r cells; read-out: EC90 Unbound): 3500 nM | time of reaching Cmax ([5]; CD1 nude mice, post dose, brain and plasma not distinguished): 4 h | AUC [5]: 64700 ng·h/mL | AUC(0-inf) [5]: 64700 ng·h/mL | AUC(0-t) [5]: 42400 ng·h/mL | CL/F [5]: 25.8 mL/min/kg | Cmax [5]: 5040 ng/mL | Tmax [5]: 1 h | half-life [5]: 10.3 h | k el [5]: 1.86e-05 s⁻¹ | Vd/F [5]: 23 L/kg | Clast [5]: 1670 ng/mL | Tlast [5]: 16 h | EC50 (TRIM24-MET-i cells; 72 h, read-out: EC50 Total): 18.1 nM | EC90 (TRIM24-MET-i cells; 72 h, read-out: EC90 Total): 322 nM | EC50 (TRIM24-MET-i cells; read-out: EC50 Unbound): 11.1 nM | EC90 (TRIM24-MET-i cells; read-out: EC90 Unbound): 198 nM
